The values below come from patent US8575170B2, “Flurbiprofen analogs and methods of use in treating cancer” (The Regents of the Unversity of Colorado, a body corporate, priority 2010, dated 2013).

The test system of one data set is H2122. The data set is described as follows: MTT cell viability, H2122 lung carcinoma cell line. It counts as cell-based. The conditions noted are these: IC50 values for the H2122 lung carcinoma cell line, Table 5, read-out: H2122 In vitro. Here is the method:
The ability of the flurbiprofen analog compounds of the invention to inhibit cancer cell growth and survival (viability) in a variety of cancer lines was examined in a standard MTT assay for cell viability, as detailed in Example 2.
The IC50 values given in Tables 1-4 were measured using the B1031 ([…]) compound) shown in Section IIB above. To confirm the generality of the results with respect to other fluribprofen analogs prepared in accordance with the invention, IC50 values for the other 11 analog compounds given in Section IIB were similarly determined for the H2122 lung carcinoma cell line.
The studies reported in Tables 1-3 above were carried out by incubating the cells in the test compound for four days, under standard cell-culture conditions, and measuring cell survival on day 5 (see Example 2).
Cell growth and survival following treatment with N—[(S)-2-Fluoro-α-methyl-4-biphenylacetyl]-[L-(4-phenylphenyl)alanine]-N-(2,2,6,6-tetramethyl-4-piperidinyl)amide (GCBH-110=B1031; (S)-Fmba-L-Bip-Atmp) were measured by a rapid colorimetric assay based on the tetrazolium salt MTT (3-(4,5-dimethylthiazol-2-yl)-2,5-diphenyl tetrazolium bromide) (Mosmann, J. Immunol. Methods 65: 55-63, 1983, with minor modifications).
Briefly, approximately 1,000-5,000 cancer cells from 15 different cancer cells lines were plated in 100 μL of growth medium in 96-well flat-bottomed microtiter plates. Cells were incubated overnight to allow recovery. Compounds to be tested were added to the cells in triplicate in a range of concentrations and the cells were incubated at 37° C., 5% CO2, with 100% humidity. Control cells were treated in the same way without antagonists. […] Plates were incubated for 4 days, allowing sufficient time for cell replication and compound-induced cell death to occur. On day 5, 25 μL of a 2 mg/mL solution of MTT (Sigma) dissolved in RMPI-1640 was added to each well. The plate was incubated for 4 h at 37° C. The supernatant liquid was removed and the blue formazan complex was dissolved by adding 100 μL of 0.02 N HCl in 75% isopropanol to all wells. Absorbance was immediately determined using a scanning multiwell plate reader.

Data set [1] in a line: Solubility of flurbiprofen analog compounds. The note with it: medium in which the compound is soluble, Table 5. It counts as physicochemical.
Data set [2] deals with H2122 lung carcinoma solid tumor xenograft. In words: H2122 lung carcinoma xenograft in nude mice. It counts as in vivo, athymic nude mice. The note with it: 5 mg/kg daily intraperitoneal, from day 7 after implantation, over the 25 days of treatment, FIG. 11. Here is the method: The efficacy of the treatment method was examined for both lung carcinoma-cell tumors and pancreatic-cell tumors implanted in athymic mice, according to the method detailed in Example 3. In the first study, mice injected with lung-carcinoma cells were treated, seven days after cancer-cell implantation, by daily injection of 5 mg/kg body weight of one of three different flurbiprofen analog compounds: B1005 (GCBH 104); B1020 (GCBH 108) and B1031 (GCBH 110). Tumor size was measured by calipers at the days indicated in FIG. 11, with final tumor weight and volume being determined by extracting the tumor from the sacrificed animals.
Compounds having high in vitro cytotoxic activity were tested against implanted tumors in vivo. In one study, athymic nude mice were implanted subcutaneously with suspensions of approximately 2 million H2122 lung carcinoma cells, in Matrigel suspension. On the seventh day after tumor implantation, groups of 5 mice bearing implants were injected intraperitoneally with the compounds being tested at 5 mg/kg/every day; control animals were injected with an equal volume of isotonic saline. […] Tumor size was measured with a caliper three times per week. Tumor volume was calculated by the formula: Volume (cc)=3.14×(length)×(width)^2/6
At autopsy, tumors were removed and weighed. Tumor inhibition was calculated on both weight and measurement basis.

A further data set relates to HT-29 colon cancer cells. The data set is described as follows: Loss in cell viability, HT-29 colon cancer cells. It is filed as cell-based. The note with it: Homo sapiens; HT-29 colon cancer cell, FIG. 6A. As for the experimental part: FIGS. 6A and 6B show the loss in cell viability in HT-29 colon cancer cells, in response to increasing concentrations of GH 502 (GCBH 118) (FIG. 6A), and the effect of various treatments, including increasing concentration of GH501 (GCBH 110) on U251 malignant glioma cells and BTIC EF12 brain tumor initiating stem cells (FIG. 6B).
The study shown in FIG. 6A examined the effect of GCBH-118 (GH502) on an HT-29 colon cancer cell, showing an IC50 value of about 1 μM. […] The graph indicates an IC50 value for the B1031 compound against the U251 brain cancer cell line of between 2 and 10 μM.

pIC50: −log10 of the molar value. Where two headings read alike, the source gives them in different places.

For `CC(C(=O)N[C@@H](Cc1ccc(OCc2c(Cl)cccc2Cl)cc1)C(=O)NC1CC(C)(C)NC(C)(C)C1)c1ccc(-c2ccccc2)c(F)c1` (stereo partly drawn) [GCBH-100, N—[(R,S)-2-Fluoro-α-methyl-4-biphenylacetyl]-[O-(2,6,dichlorobenzyl)-L-tyrosine]-N-(2,2,6,6-tetramethyl-4-piperidinyl)amide], the pIC50 in the data set on H2122 (Homo sapiens, NCI-H2122) was 5.40. In data set [1], this molecule had a Solubility of 50% DMSO.

Consider `CC(C(=O)N[C@@H](Cc1ccc(OCc2c(Cl)cccc2Cl)cc1)C(=O)NCCCN1CCN(C)CC1)c1ccc(-c2ccccc2)c(F)c1` (stereo partly drawn) [GCBH-102, N—[(R,S)-2-Fluoro-α-methyl-4-biphenylacetyl]-[O-(2,6,dichlorobenzyl)-L-tyrosine]-N-[3-(4-methyl-1-piperizinyl)propyl]amide], for which, in the data set with H2122, the pIC50 is 5.10. Further, the Solubility in data set [1] is 20% DMSO.

For the molecule `CC(C(=O)N[C@@H](Cc1ccc(-c2ccccc2)cc1)C(=O)NC1CC(C)(C)NC(C)(C)C1)c1ccc(-c2ccccc2)c(F)c1` (stereo partly drawn) [GCBH-104, N—[(R,S)-2-Fluoro-α-methyl-4-biphenylacetyl]-[L-(4-phenylphenyl)alanine]-N-(2,2,6,6-tetramethyl-4-piperidinyl)amide], in data set [2], the “inhibition of growth of the lung carcinoma cell line H2122 tumor” value was found to be 74%.

Turning to `CC(C(=O)N[C@H](C(=O)NC1CC(C)(C)NC(C)(C)C1)C(c1ccccc1)c1ccccc1)c1ccc(-c2ccccc2)c(F)c1` (some centres unmarked) [GCBH-106], the pIC50 in the data set with H2122 (Homo sapiens, NCI-H2122) is 5.92. The same molecule had a Solubility in data set [1] of 50% DMSO.

On to `CC(C(=O)N[C@@H](Cc1ccc(OCc2c(Cl)cccc2Cl)cc1)C(=O)NC1CC(C)(C)NC(C)(C)C1)c1ccc(-c2ccccc2)c(F)c1` (stereo partly drawn) [GCBH-112, N—[(R,S)-2-Fluoro-α-methyl-4-biphenylacetyl]-[O-(2,6,dichlorobenzyl)-L-tyrosine]-N-(2,2,6,6-tetramethyl-4-piperidinyl)amide], for which the pIC50 with H2122 was 5.80. Besides, the Solubility in data set [1] is reported as 50% DMSO.

Regarding `CC(C(=O)N[C@@H](Cc1csc2ccccc12)C(=O)NC1CC(C)(C)NC(C)(C)C1)c1ccc(-c2ccccc2)c(F)c1` (stereo partly drawn) [GCBH-114, N—[(R,S)-2-Fluoro-α-methyl-4-biphenylacetyl]-(L-3-benzothienylalanine)-N-(2,2,6,6-tetramethyl-4-piperidinyl)amide], the pIC50 in the data set with H2122 (Homo sapiens, NCI-H2122) was 5.92. The molecule also returned a Solubility in data set [1] of 50% DMSO.

Regarding `CC(C(=O)N[C@@H](CC1CCCCC1)C(=O)NC1CC(C)(C)NC(C)(C)C1)c1ccc(-c2ccccc2)c(F)c1` (stereo partly drawn) [GCBH-116, N—[(R,S)-2-Fluoro-α-methyl-4-biphenylacetyl]-(β-cyclohexyl-L-alanine)-N-(2,2,6,6-tetramethyl-4-piperidinyl)amide], in the data set with H2122 (Homo sapiens, NCI-H2122), the pIC50 was 5.64. The Solubility in data set [1] is recorded as 20% DMSO.

In the case of `CC(C(=O)N[C@@H](Cc1cccnc1)C(=O)NC1CC(C)(C)NC(C)(C)C1)c1ccc(-c2ccccc2)c(F)c1` (stereo partly drawn) [GCBH-118, N—[(R,S)-2-Fluoro-α-methyl-4-biphenylacetyl]-(β-3-pyridyl-L-alanine)-N-(2,2,6,6-tetramethyl-4-piperidinyl)amide], the pIC50 with H2122 (Homo sapiens, NCI-H2122) is 5.85; in the data set on HT-29 colon cancer cells, around 6.00.

On to `C[C@H](C(=O)NC(CC(=O)NC1CC(C)(C)NC(C)(C)C1)c1ccc(-c2ccccc2)cc1)c1ccc(-c2ccccc2)c(F)c1` (stereo partly drawn) [GCBH-120, N—[(S)-2-Fluoro-α-methyl-4-biphenylacetyl]-[R,S,-β-(p-biphenyl)-β-alanine]-N-(2,2,6,6-tetramethyl-4-piperidinyl)amide], for which, in the data set on H2122 (Homo sapiens, NCI-H2122), the pIC50 was 5.27. The Solubility in data set [1] was found to be 50% DMSO.

As to `C[C@H](C(=O)N[C@@H](Cc1ccc(C(F)(F)F)cc1)C(=O)NC1CC(C)(C)NC(C)(C)C1)c1ccc(-c2ccccc2)c(F)c1` [GCBH-122, N—[(S)-2-Fluoro-α-methyl-4-biphenylacetyl]-[(4-trifluoromethyl)-L-phenylalanine]-N-(2,2,6,6-tetramethyl-4-piperidinyl)amide], the pIC50 with H2122 (Homo sapiens, NCI-H2122) is 5.68. This molecule came in with a Solubility in data set [1] of 50% DMSO.

Regarding `C[C@H](C(=O)N[C@@H](Cc1ccc(F)cc1)C(=O)NC1CC(C)(C)NC(C)(C)C1)c1ccc(-c2ccccc2)c(F)c1` [GCBH-124, N—[(S)-2-Fluoro-α-methyl-4-biphenylacetyl]-[(4-fluoro)-L-phenylalanine]-N-(2,2,6,6-tetramethyl-4-piperidinyl)amide], the pIC50 with H2122 (Homo sapiens, NCI-H2122) is 5.60. The same molecule registered a Solubility in data set [1] of 20% DMSO.

Consider `C[C@H](C(=O)N[C@@H](Cc1ccc(N(CCCl)CCCl)cc1)C(=O)NC1CC(C)(C)NC(C)(C)C1)c1ccc(-c2ccccc2)c(F)c1` [GCBH-126], for which the pIC50 in the data set on H2122 (Homo sapiens, NCI-H2122) was 5.42. Besides, the Solubility in data set [1] was found to be 20% DMSO.
